Experimental findings from US6784192B2, “Piperidine compound and pharmaceutical composition thereof” (Eisai Co., Ltd., priority 2000, dated 2004) are described below.

Experiment [1] has as its system atrial muscle of anesthetized thoracotomy dog. Nature of the experiment: Effective refractory period (ERP) in anesthetized thoracotomy dog. The class given is in vivo. To be noted: for Measurement Value of ERP: mean. An excerpt:
(§1) (1) An anesthetized thoracotomy dog was used for the present experiment. After opening brisket at a median line and cutting epicardium, bipolar electrodes for determination of a potential wave form were respectively stitched at the free walls of right and left atriums. Further, a wire electrode was inserted in the free wall of a right atrium to be fixed and used for electrical simulation.
(2) A program electrical stimulation equipment was connected with the electrode for electrical stimulation at the right atrium, the electrical stimulation was carried out at a stimulation periodical length of 500 mess, and a threshold for the electrical stimulation was measured. The electrical stimulation intensity for the experiments below was set to carry out stimulation at 3-fold of this threshold. However, when the threshold was 0.7 V or less, the electrical stimulation was carried out at 2.0 V. Effective refractory period (ERP) provided early premature stimulation (S2) after the basic stimulation (S1) of 10 times, and the longest linking period in which atrium potential was not generated by the premature stimulation was referred to as ERP, while shortening the linking period (S1-S2) by 5 mess. Similar experiments were also carried out for the respective basic stimulation length (BCL) of 400, 300, 250 and 200 mess (control experiment: 1 series). After carrying out 2 times or more of the control experiments and confirming that ERP was stable, the tested substance was subsequently administered, and similar measurement was carried out. After the tested substance was administered once intravenously for 5 minutes, its keeping dose was subsequently administered intravenously. After 10 minutes of the administration start of the keeping dose, ERP was measured in the respective stimulation frequency. After completion of the one series of measurements, the concentration of the tested substance was increased and the similar experiments were repeated. The ERP and conduction time in the atrium in the respective stimulation frequency were compared with various indices under control condition. The result is shown by mean.

Experiment [2] concerns atrial fibrillation (AF) in anesthetized thoracotomy dog. Nature of the experiment: Effect of termination and prevention of atrium fibrillation (AF) in anesthetized thoracotomy dog. Type of experiment: in vivo. To be noted: samples with effect / samples tested.
Text: as §1, with “simulation. After cutting cervix at a median line, right and left vagal nerves were peeled. Wire electrodes for stimulating vagal nerves were inserted along the surface layers of the respective both sides to be fixed and used as stimulation for vagal nerves.” for “simulation.”
(2) Electrical stimulation was carried out under conditions: a stimulation duration of 0.1 mess; a x stimulation frequency of 20 Hz; and a stimulation intensity of 3 to 7 V. After 5 minutes of the start of the stimulation, high frequency stimulation (10 Hz, 1 sec) was applied to the right atrium, and the induction of atrial fibrillation (hereinafter, abbreviated as “AF”) was tried. The stimulation intensity of high frequency stimulation of the right atrium was carried out from 1.0 V, and when AF was not induced, induction was tried by increasing the stimulation intensity to 5.0 V. After AF was induced, observation for 30 minutes was carried out, it was confirmed that AF is kept (control experiment). Further, when AF induced was not kept for 30 minutes, the experiment was stopped.
(3) After confirming that AF was kept for 30 minutes or more in the control experiment, the stimulation of vagal nerve was intercepted, and the dog was rested for about one hour to be recovered. After that, similarly, AF was induced again. Further, the stimulation of vagal nerve at this time was carried out at the higher stimulation intensity by about 2 V than at the control experiment. After 5 minutes of the induction of AF, the administration of a tested substance was carried out. The tested substance was administered intravenously over 5 minutes. After completion of the administration, observation was carried out for 5 minutes, and when the termination of AF was not observed, the dose was increased and the observation was similarly carried out. When AF was stopped, the induction of AF was tried again just after termination. At this time, when AF which was continued for one minute or more was induced again, it was judged as no effect of prevention, and experiment was similarly carried out by increasing the dose.
In the Table, the number of the denominator indicates the number of the sample used for test, and the number of the numerator indicates the number of the sample in which the effect was confirmed.

Experiment [3] concerns sodium channel of synaptosome of rat cerebral cortex. Nature of the experiment: Assessment for sodium channel of synaptosome of rat cerebral cortex (SBFI). The class given is cell-based. To be noted: read-out: SBFI (IC50 μM); Test Example 3; Veratridine 20 μM; 2 μM TTX as 100%. On the procedure:
In the present experiment the synaptosome which was extracted from rat cerebral cortex was used. After sodium ion-sensitive dye, SBFI was taken in, the synaptosome was reacted with the respective tested substances (3 samples in 6 concentrations) at room temperature for 15 minutes in a 96 wells plate. The sodium channel inhibitory activity was measured using FDSS2000 of HAMAMATSU Photonics Co., Ltd. The sodium ion concentration in the synaptosome was measured once per 5 seconds using the fluorescent intensity of SBFI as an index. After measuring the control value 10 times, Veratridine was added so that the final concentration was 20 μM, and further measurement was carried out 30times. The inhibitory activity value of the tested substances for sodium channel was calculated, setting the action only by a measurement solution without the tested substance, as 0%, and the inhibitory activity caused by 2 μM of TTX which was a positive control, as 100%, as an inhibitory activity value corresponding to this action, using the increase of the fluorescent intensity of SBFI to the control value which was generated after addition of Veratridine, as an index.

Experiment [4] deals with spontaneous nerve discharge of cut left saphenous nerve. Nature of the experiment: Suppression of spontaneous nerve discharge (ectopic firing). Conditions: Test Example 5; rat, intravenous catheter, urethane anesthetized; read-out: Ectopic Firing (ID50 mg/kg). Type of experiment: in vivo. As to the method: In order to assess the suppression action for spontaneous nerve discharge, the experiment was carried out by a method below, referring to “Burchiel, K J., Exp. Nuerol., 102, 249-253 (1988)”. Namely, for the rat in which spontaneous discharge was observed, the left saphenous nerve was cut off nearby knee articulatio before 1 week or more, and around 3 mm of the nerve was cut off so that the nerve was not adhered again. The left saphenous nerve was exposed under urethane (1 g/kg body weight) anesthetized, and about 1 cm of adjacent portion from the cut portion was peeled from a periphery tissue. Further, a catheter was preliminarily inserted in the vein of a right neck for administration of a compound. The peeled nerve was mounted on a platinum hook electrode, and liquid paraffin was put on it so that the nerve was not dried. The electrode was connected with a fine electrode amplifier, and the value was recorded on a computer through an AD/converter from an oscilloscope. The nerve discharge recorded was assessed by the number of ignition per 10 seconds using an analysis soft (AcqKnowledge).

A further experiment has as its system rabbit atrial muscle. Nature of the experiment: Assessment for rabbit atrial muscle, Vmax. To be noted: Oryctolagus cuniculus, 0.25 h; Test Example 4; right atrial muscle, stimulation frequency 4 Hz, 15 minutes. On the procedure:
The specimen of the right atrial muscle which was enucleated from rabbit was used for the present experiment. The electrical stimulation was applied for the right atrial muscle which was enucleated, under conditions: a stimulation duration of 1 mess; a stimulation frequency of 4 Hz; and a stimulation intensity of about 1.2-fold of the threshold. The stimulation was provided from 30 minutes to 60 minutes before start of the experiment, and the condition of the specimen was stabilized. The action potential was recorded according to a glass microelectrode method. 3 M KCl was charged in the glass electrode, inserted in the specimen of the right atrium, and the action potential was recorded. Vmax is the parameter of the maximum upstroke slope of the action potential recorded, and a value which was automatically calculated by an action potential analysis soft (CAPA 1.23 manufactured by Physiotec. Co., Ltd.) was used. After the action potential in a normal Tyrode solution was recorded as control, the action potential after flowing the tested substances at respective concentrations for 15 minutes was recorded. The action of the tested substance for Vmax was calculated as an IC50 value.

SMILES strings stand for the structures. Structures can show the parent of a compound that is named as a salt.

With `CS(=O)(=O)c1ccsc1CCC1CCN(Cc2ccc[nH]c2=O)CC1` [Example 135, 1-[(2-Oxo-1,2-dihydro-3-pyridinyl)methyl]-4-[2-(3-methylsulfonyl-2-thienyl)ethyl]piperidine], the “Measurement Value of ERP” value amounted to 125.0 ms in experiment [1] (dose 0.1 mg/kg intravenously, BCL 200 msec); 138.3 ms in experiment [1] (dose 0.1 mg/kg intravenously, BCL 250 msec); 155.0 ms in experiment [1] (dose 0.1 mg/kg intravenously, BCL 300 msec); 170.0 ms in experiment [1] (dose 0.1 mg/kg intravenously, BCL 400 msec); 178.3 ms in experiment [1] (dose 0.1 mg/kg intravenously, BCL 500 msec); 138.3 ms in experiment [1] (dose 0.3 mg/kg intravenously, BCL 200 msec). Moreover, the “Measurement Value of ERP” value amounted to 150.0 ms in experiment [1] (dose 0.3 mg/kg intravenously, BCL 250 msec); 166.7 ms in experiment [1] (dose 0.3 mg/kg intravenously, BCL 300 msec); 181.7 ms in experiment [1] (dose 0.3 mg/kg intravenously, BCL 400 msec); 190.0 ms in experiment [1] (dose 0.3 mg/kg intravenously, BCL 500 msec); 183.3 ms in experiment [1] (dose 1 mg/kg intravenously, BCL 250 msec); 195.0 ms in experiment [1] (dose 1 mg/kg intravenously, BCL 300 msec). Also, the “Measurement Value of ERP” value in experiment [1] (dose 1 mg/kg intravenously, BCL 400 msec) was 203.3 ms; in experiment [1] (dose 1 mg/kg intravenously, BCL 500 msec), 208.3 ms. Moreover, the “Percent change in ERP versus pre-dose control” value (shortened to “Percent change”) in experiment [1] (dose 0.1 mg/kg, BCL 200 msec) was 7.1%; in experiment [1] (dose 0.1 mg/kg, BCL 250 msec), 3.9%; in experiment [1] (dose 0.1 mg/kg, BCL 300 msec), 5.7%; in experiment [1] (dose 0.1 mg/kg, BCL 400 msec) it was 3.0%; in experiment [1] (dose 0.1 mg/kg, BCL 500 msec), 3.1%; in experiment [1] (dose 0.3 mg/kg, BCL 200 msec), 18.6%. Further, the “Percent change” value in experiment [1] (dose 0.3 mg/kg, BCL 250 msec) is on record as 12.6%; in experiment [1] (dose 0.3 mg/kg, BCL 300 msec) it was 13.7%; in experiment [1] (dose 0.3 mg/kg, BCL 400 msec), 10.1%; in experiment [1] (dose 0.3 mg/kg, BCL 500 msec), 9.8%; in experiment [1] (dose 1 mg/kg, BCL 250 msec) it was 37.9%; in experiment [1] (dose 1 mg/kg, BCL 300 msec), 33.2%. In addition, the “Percent change” value in experiment [1] (dose 1 mg/kg, BCL 400 msec) is given as 23.4%; in experiment [1] (dose 1 mg/kg, BCL 500 msec), 20.6%. For the same compound, the the termination effect in experiment [2] (dose 0.3 mg/kg intravenously over 5 minutes) is listed as 1/3; in experiment [2] (dose 1 mg/kg intravenously over 5 minutes), 2/2. Besides, the the prevention effect in experiment [2] (dose 0.3 mg/kg intravenously) is listed as 1/1; in experiment [2] (dose 1 mg/kg intravenously), 2/2.
The IC50 is the midpoint of a concentration-inhibition curve. Regarding `O=c1[nH]c2ccccc2cc1CN1CCC(CCc2cccc(-c3ccccc3)c2)CC1` [Example 381, 1-[(2-Oxo-1,2-dihydro-3-quinolinyl)methyl]-4-[2-(3-(phenylphenyl)ethyl]piperidine oxalate], the IC50 was 3 µM in experiment [3] and 100 µM with rabbit atrial muscle. Also, the ED50 in experiment [4] was 0.56 mg/kg.
